These results are taken from patent US12649733B2, “3,6-diamino-pyridazin-3-yl derivatives, pharmaceutical compositions containing them and their uses as pro-apoptotic agents” (LES LABORATOIRES SERVIER, priority 2019, dated 2026).

As usually defined, the Ki is the equilibrium dissociation constant of an inhibitor or competing ligand from its target. By IC50 is commonly meant the concentration at which inhibition is half-maximal.

One experiment has as its target BCLXL (Homo sapiens, UniProt Q07817, V10N/V9A). The experiment is described as follows: Fluorescence polarisation assay (PUMA-based probe displacement). Further: 20 nM protein, 10 nM fluorescent probe. The class given is binding. On the procedure:
Fluorescence polarization measures the rotation of a fluorescing species in solution, the larger the molecule the more polarized the fluorescence emission.
[[…]] (GST UniProtKB® primary accession number P08515 and BCLXL UniProtKB® primary accession number Q07817-1),
resulting in an increase in anisotropy. If a compound is added which competitively binds to the same site as the probe, thereby releasing it, anisotropy decreases due to the increased amount of free probe.
An 11-point serial dilution of each compound was prepared in DMSO, the final buffer conditions were 10 mM 4-(2-hydroxyethyl)-1-piperazineethanesulfonic acid [HEPES], 150 mM NaCl, 0.05% Tween 20, pH 7.4 and 5% DMSO. The final protein concentration in the assay was 20 nM with the fluorescent probe present at 10 nM. The experiments were incubated for 2 hours at 23° C. before fluorescence polarization was measured on a Biotek SynergyNeo plate reader (Excitation 485 nm, emission 525 nm, parallel and perpendicular reads). […] The KI values were determined from the IC50 values according to Cer et al, Nucleic Acids Res, 2009, Jul. 1: 37(WebServer issue): W441-W445.
Background: Polarisation of emitted light reports the rotation of a fluorescent probe.

In another experiment the test system is MOLT-4 cells. Description: MOLT-4 cell viability, MTT assay. The format is cell-based. Conditions: Homo sapiens, MOLT-4, 48 h, 48 h exposure. On the procedure: (§1) MTT colorimetric assay is based on the mitochondrial reduction of tetrazolium salt by living cells. The viable cell number is proportional to the production of formazan salts, which can be read spectrophotometrically at 540 nm.
(§2) MOLT-4 and H146 cells were purchased from ATCC and cultivated in RPMI 1640 supplemented with 10% heat inactivated fetal bovine serum, penicillin (100 IU/ml), streptomycin (100 μg/ml) and L-glutamine (2 mM). Cells were cultured at 37° C. in a humidified atmosphere containing 5% CO2. Cells were seeded in 96 microwell plates (150 μL per well) and exposed to the compounds for 48 h (3.16 fold serially diluted; 9 concentrations each, triplicates). At the end of incubation time, 15 μL of MTT solution (5 mg/ml) were added per well and the cells were incubated for another 4 h. Then, 100 μL of 10% Sodium Dodecyl Sulfate (SDS)/HCl 10 mM were added per well and the plate was incubated overnight, before measurement of optical density at 540 nm. IC50s were calculated using standard four-parametric curve fitting.
On the technique in general: Tetrazolium dyes change colour on reduction, which living cells bring about.

A further experiment relates to H146 cells. The experiment is described as follows: H146 cell viability, MTT assay. The format is cell-based. The following applies: Homo sapiens, NCI-H146, 48 h, 48 h exposure. On the procedure:
as §1, §2

Chain of BCLXL (Q07817 with tags, fused parts or gaps V9A/V10N): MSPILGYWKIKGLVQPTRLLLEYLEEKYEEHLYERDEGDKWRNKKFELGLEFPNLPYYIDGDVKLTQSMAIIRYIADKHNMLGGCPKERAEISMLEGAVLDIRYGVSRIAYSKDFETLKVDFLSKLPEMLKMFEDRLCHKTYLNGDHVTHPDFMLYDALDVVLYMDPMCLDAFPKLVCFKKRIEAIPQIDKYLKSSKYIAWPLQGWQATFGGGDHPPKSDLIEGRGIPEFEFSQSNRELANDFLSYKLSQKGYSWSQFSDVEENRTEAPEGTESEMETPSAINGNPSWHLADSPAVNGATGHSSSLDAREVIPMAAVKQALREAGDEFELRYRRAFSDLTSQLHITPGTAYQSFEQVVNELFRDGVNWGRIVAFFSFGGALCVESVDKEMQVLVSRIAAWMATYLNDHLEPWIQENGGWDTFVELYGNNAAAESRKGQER

On to `COCc1c(Nc2nc3ccccc3s2)nnc(Nc2nc(C(=O)O)cs2)c1C` [Example 28, 2-({6-[(1,3-Benzothiazol-2-yl)amino]-5-(methoxymethyl)-4-methylpyridazin-3-yl}amino)-1,3-thiazole-4-carboxylic acid], for which the Ki on BCLXL came out at 0.13 µM. Also, the IC50 with MOLT-4 cells and in the experiment on H146 cells was > 15 µM each time.
In the case of `CCOCc1c(Nc2nc(C(=O)O)cs2)nnc(Nc2nc3ccccc3s2)c1C` [Example 30, 2-({6-[(1,3-Benzothiazol-2-yl)amino]-4-(ethoxymethyl)-5-methylpyridazin-3-yl}amino)-1,3-thiazole-4-carboxylic acid], the Ki on BCLXL turned out to be 0.081 µM. Moreover, the IC50 is 8.67 µM in the experiment on MOLT-4 cells and > 15 µM with H146 cells.
For `CN(c1cc(C2CC2)c(Nc2nc3ccccc3s2)nn1)c1nc(C(=O)O)cs1` [Example 31, 2-({6-[(1,3-Benzothiazol-2-yl)amino]-5-cyclopropylpyridazin-3-yl}(methyl)amino)-1,3-thiazole-4-carboxylic acid], at BCLXL, the Ki stood at 0.0026 µM. For the same compound, the figures for the IC50 in the experiment on MOLT-4 cells and in the experiment with H146 cells were 2.34 µM and 4.19 µM, respectively.
In the case of `Cc1c(-c2sc(Nc3ccc(Nc4nc5ccccc5s4)nn3)nc2C(=O)O)cnn1CC12CC3CC(CC(C3)C1)C2` [Example 32, 5-{1-[(Adamantan-1-yl)methyl]-5-methyl-1H-pyrazol-4-yl}-2-({6-[(1,3-benzothiazol-2-yl)amino]pyridazin-3-yl}amino)-1,3-thiazole-4-carboxylic acid], the Ki at BCLXL was determined as 0.26 µM. The IC50 with MOLT-4 cells is 13.3 µM; in the experiment with H146 cells it was ≥ 7.42 µM.
Turning to `Cc1c(Nc2nc(C(=O)O)c(-c3cnn(CC45CC6CC(CC(C6)C4)C5)c3C)s2)nnc(Nc2nc3ccccc3s2)c1C` [Example 33, 5-{1-[(Adamantan-1-yl)methyl]-5-methyl-1H-pyrazol-4-yl}-2-({6-[(1,3-benzothiazol-2-yl)amino]-4,5-dimethylpyridazin-3-yl}amino)-1,3-thiazole-4-carboxylic acid], at BCLXL, the inhibitory constant (Ki) was 0.064 µM. The results for the IC50 in the experiment on MOLT-4 cells and with H146 cells were 6.25 µM and 4.37 µM, respectively.
Regarding `CC(C)c1cc(N(C)c2nc(C(=O)O)cs2)nnc1Nc1nc2ccccc2s1` [Example 34, 2-({6-[(1,3-Benzothiazol-2-yl)amino]-5-(propan-2-yl)pyridazin-3-yl}(methyl)amino)-1,3-thiazole-4-carboxylic acid], the Ki at BCLXL is 0.0089 µM. Further, the IC50 in the experiment with MOLT-4 cells is 3.89 µM; in the experiment on H146 cells, 5.32 µM.
Take `COCCCC1(Cn2ncc(-c3sc(Nc4nnc(Nc5nc6ccccc6s5)c(C)c4C)nc3C(=O)O)c2C)CCCCCCC1` [Example 35, 2-({6-[(1,3-Benzothiazol-2-yl)amino]-4,5-dimethylpyridazin-3-yl}amino)-5-(1-{[1-(3-methoxypropyl)cyclooctyl]methyl}-5-methyl-1H-pyrazol-4-yl)-1,3-thiazole-4-carboxylic acid]: at BCLXL, the Ki was determined as 0.059 µM. Moreover, the IC50 in the experiment on MOLT-4 cells was found to be 3.7 µM; with H146 cells it was 2.33 µM.
Regarding `COCCCC1(Cn2ncc(-c3sc(Nc4nnc(Nc5nc6ccccc6s5)c(C)c4C)nc3C(=O)O)c2C)CCCCC1` [Example 36, 2-({6-[(1,3-benzothiazol-2-yl)amino]-4,5-dimethylpyridazin-3-yl}amino)-5-(1-{[1-(3-methoxypropyl)cyclohexyl]methyl}-5-methyl-1H-pyrazol-4-yl)-1,3-thiazole-4-carboxylic acid], the Ki on BCLXL was found to be 0.028 µM. Moreover, the concentration for half-maximal inhibition (IC50) in the experiment with MOLT-4 cells was 3.47 µM; with H146 cells, 1.99 µM.
In the case of `CCN(c1cc(C)c(Nc2nc3ccccc3s2)nn1)c1nc(C(=O)O)cs1` [Example 37, 2-({6-[(1,3-Benzothiazol-2-yl)amino]-5-methylpyridazin-3-yl}(ethyl)amino)-1,3-thiazole-4-carboxylic acid], the Ki at BCLXL was 0.015 µM. In addition, the IC50 in the experiment on MOLT-4 cells was determined as 7.39 µM; with H146 cells, 11 µM.
As for `CN(c1ccc(Nc2nc3ccccc3s2)nn1)c1cccc(C(=O)O)n1` [Example 38, 6-({6-[(1,3-Benzothiazol-2-yl)amino]pyridazin-3-yl}(methyl)amino)pyridine-2-carboxylic acid], the Ki on BCLXL turned out to be 250 µM. Moreover, the IC50 in the experiment on MOLT-4 cells and in the experiment with H146 cells was > 15 µM each time.
As for `COCCN(c1cc(C)c(Nc2nc3ccccc3s2)nn1)c1nc(C(=O)O)cs1` [Example 39, 2-({6-[(1,3-Benzothiazol-2-yl)amino]-5-methylpyridazin-3-yl}(2-methoxyethyl)amino)-1,3-thiazole-4-carboxylic acid], the Ki on BCLXL was 0.054 µM. Besides, the IC50 in the experiment with MOLT-4 cells and with H146 cells was > 15 µM throughout.
Turning to `Cc1cc(N(C)c2nc(C(=O)O)c(-c3cnn(CC45CC6CC(CC(C6)C4)C5)c3C)s2)nnc1Nc1nc2ccccc2s1` [Example 40, 5-{1-[(Adamantan-1-yl)methyl]-5-methyl-1H-pyrazol-4-yl}-2-({6-[(1,3-benzothiazol-2-yl)amino]-5-methylpyridazin-3-yl}(methyl)amino)-1,3-thiazole-4-carboxylic acid], the Ki on BCLXL was 0.02 µM. Besides, the results for the IC50 in the experiment on MOLT-4 cells and in the experiment on H146 cells were 1.49 µM and 3.8 µM, respectively.
In the case of `Cc1cc(N(CCN2CCOCC2)c2nc(C(=O)O)cs2)nnc1Nc1nc2ccccc2s1` [Example 41, 2-({6-[(1,3-Benzothiazol-2-yl)amino]-5-methylpyridazin-3-yl}[2-(morpholin-4-yl)ethyl]amino)-1,3-thiazole-4-carboxylic acid], the Ki at BCLXL was 0.037 µM. For the same compound, the values for the 50% inhibitory concentration (IC50) in the experiment with MOLT-4 cells and in the experiment on H146 cells were > 13 µM and ≥ 9.76 µM, respectively.
On to `COCCCC1(Cn2ncc(-c3sc(N(C)c4cc(C)c(Nc5nc6ccccc6s5)nn4)nc3C(=O)O)c2C)CCCCC1` [Example 42, 2-({6-[(1,3-Benzothiazol-2-yl)amino]-5-methylpyridazin-3-yl}(methyl)amino)-5-(1-{[1-(3-methoxypropyl)cyclohexyl]methyl}-5-methyl-1H-pyrazol-4-yl)-1,3-thiazole-4-carboxylic acid], for which, at BCLXL, the Ki is 0.0047 µM. Further, the values for the IC50 with MOLT-4 cells and in the experiment with H146 cells were 1.02 µM and 2.04 µM, respectively.
On to `Cc1cc(N(CCCN2CCOCC2)c2nc(C(=O)O)cs2)nnc1Nc1nc2ccccc2s1` [Example 44, 2-({6-[(1,3-Benzothiazol-2-yl)amino]-5-methylpyridazin-3-yl}[3-(morpholin-4-yl)propyl]amino)-1,3-thiazole-4-carboxylic acid], for which the Ki on BCLXL was found to be 0.069 µM. In addition, the IC50 in the experiment on MOLT-4 cells and with H146 cells was > 15 µM in each case.
Turning to `CCCN(c1cc(C)c(Nc2nc3ccccc3s2)nn1)c1nc(C(=O)O)cs1` [Example 45, 2-({6-[(1,3-Benzothiazol-2-yl)amino]-5-methylpyridazin-3-yl}(propyl)amino)-1,3-thiazole-4-carboxylic acid], the Ki on BCLXL was 0.014 µM. The results for the IC50 in the experiment with MOLT-4 cells and in the experiment on H146 cells were 11.7 µM and ≥ 11.8 µM, respectively.
As for `CCN(CC)CCCN(c1cc(C)c(Nc2nc3ccccc3s2)nn1)c1nc(C(=O)O)cs1` [Example 46, 2-({6-[(1,3-Benzothiazol-2-yl)amino]-5-methylpyridazin-3-yl}[3-(diethylamino)propyl]amino)-1,3-thiazole-4-carboxylic acid], at BCLXL, the Ki turned out to be 0.19 µM. Moreover, the IC50 in the experiment with MOLT-4 cells and in the experiment with H146 cells was > 15 µM throughout.
Consider `COCCCN(c1cc(C)c(Nc2nc3ccccc3s2)nn1)c1nc(C(=O)O)cs1` [Example 47, 2-({6-[(1,3-Benzothiazol-2-yl)amino]-5-methylpyridazin-3-yl}(3-methoxypropyl)amino)-1,3-thiazole-4-carboxylic acid], for which, at BCLXL, the Ki was 0.023 µM. For the same compound, the IC50 in the experiment with MOLT-4 cells is > 15 µM; in the experiment with H146 cells it was ≥ 9.62 µM.
In the same order, the values of `Cc1cc(N(CCCO)c2nc(C(=O)O)cs2)nnc1Nc1nc2ccccc2s1` [Example 49, 2-({6-[(1,3-Benzothiazol-2-yl)amino]-5-methylpyridazin-3-yl}(3-hydroxypropyl)amino)-1,3-thiazole-4-carboxylic acid] are 0.0081 µM, > 15 µM and > 15 µM.
In the same order, the values of `COCCCN(c1cc(C)c(Nc2nc3ccccc3s2)nn1)c1nc(C(=O)O)c(-c2cnn(CC34CC5CC(CC(C5)C3)C4)c2C)s1` [Example 52, 5-{1-[(Adamantan-1-yl)methyl]-5-methyl-1H-pyrazol-4-yl}-2-({6-[(1,3-benzothiazol-2-yl)amino]-5-methylpyridazin-3-yl}(3-methoxypropyl)amino)-1,3-thiazole-4-carboxylic acid] are 0.09 µM, 8.36 µM and 13 µM.
